Test results reported in US20220388980A1, “QUINOLINE INHIBITORS OF RAD52 AND METHODS OF USE” (Drexel University, priority 2019, published 2022).

biological target: T1, RAD52 (Homo sapiens, UniProt P43351); assay: D-loop formation assay; format: biochemical; conditions: compound at 10 μM; 32P-labeled ssDNA (oligo 90) and supercoiled pUC19 DNA, 37° C.
T1 construct: made in house
T1 sequence (P43351 1-418): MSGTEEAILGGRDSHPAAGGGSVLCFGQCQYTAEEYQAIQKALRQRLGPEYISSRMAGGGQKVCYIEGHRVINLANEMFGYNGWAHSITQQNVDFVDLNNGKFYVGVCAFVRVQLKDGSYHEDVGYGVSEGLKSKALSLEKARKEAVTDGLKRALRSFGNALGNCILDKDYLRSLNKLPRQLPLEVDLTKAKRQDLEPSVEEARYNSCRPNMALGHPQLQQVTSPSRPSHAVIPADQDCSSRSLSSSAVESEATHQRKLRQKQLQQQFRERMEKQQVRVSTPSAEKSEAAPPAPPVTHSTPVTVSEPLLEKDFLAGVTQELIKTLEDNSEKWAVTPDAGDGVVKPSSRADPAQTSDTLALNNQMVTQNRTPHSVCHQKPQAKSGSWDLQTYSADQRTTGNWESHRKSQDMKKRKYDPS

First: S=C(NCCN1CCCCCC1)Nc1ccc2nc(N3CCNCC3)ccc2c1 [compound 0021]
Second: S=C(NCCCN1CCCCCC1)Nc1ccc2nc(N3CCNCC3)ccc2c1 [compound 0022]
The “D-Loop (% @10 μM)” value of the first is higher: 40.29% for the first, 37.7% for the second.

Compared with CCN1CCN(c2cc(C)c3cc(NC(=S)NCCN4CCCCC4)ccc3n2)CC1 [compound 0025], CCN1CCN(c2cc(C)c3cc(NC(=S)NCCN4CCCCCC4)ccc3n2)CC1 [compound 0027] is lower in “D-Loop (% @10 μM)” value: 36.08% for the first, 23.26% for the second.

Compared with CCN1CCN(c2cc(C)c3cc(NC(=S)NCCCN4CCCCC4)ccc3n2)CC1 [compound 0026], CCN1CCN(c2cc(C)c3cc(NC(=S)NCCCN4CCCCCC4)ccc3n2)CC1 [compound 0028] is higher in “D-Loop (% @10 μM)” value: 11.42% for the first, 46.57% for the second.

Going from CCN1CCN(c2cc(C)c3cc(NC(=S)NCCN4CCCC4)ccc3n2)CC1 [compound 0029] to CCN1CCN(c2cc(C)c3cc(NC(=S)NCCCN4CCCC4)ccc3n2)CC1 [compound 0068], the “D-Loop (% @10 μM)” value falls from 46.67% to 30.62%.

First: CCN1CCN(c2cc(C)c3cc(NC(=S)NCCN)ccc3n2)CC1 [compound 0033]
Second: CCN1CCN(c2cc(C)c3cc(NC(=S)NCCCN)ccc3n2)CC1 [compound 0077]
The “D-Loop (% @10 μM)” value of the first is lower: 12.77% for the first, 21.2% for the second.

First: CCN1CCN(c2cc(C)c3cc(NC(=S)NCCN(C(C)C)C(C)C)ccc3n2)CC1 [compound 0035]
Second: CCN1CCN(c2cc(C)c3cc(NC(=S)NCCCCN(C)C)ccc3n2)CC1 [compound 0067]
The “D-Loop (% @10 μM)” value of the first is higher: 64.68% for the first, 35.65% for the second.

Going from CCN(CC)CCCCNC(=S)Nc1ccc2nc(N3CCN(CC)CC3)cc(C)c2c1 [compound 0036] to CCN(CC)CCNC(=O)Nc1ccc2nc(N3CCN(CC)CC3)cc(C)c2c1 [compound 0038, 1-(2-(diethylamino)ethyl)-3-(2-(4-ethylpiperazin-1-yl)-4-methylquinolin-6-yl)urea], the “D-Loop (% @10 μM)” value rises from 64.62% to 77.7%.

Compared with CCN1CCN(c2cc(C)c3cc(NC(=O)NCCCN4CCCCCC4)ccc3n2)CC1 [compound 0039, 1-(3-(azepan-1-yl)propyl)-3-(2-(4-ethylpiperazin-1-yl)-4-methylquinolin-6-yl)urea], CCN1CCN(c2cc(C)c3cc(NC(=S)NCCN4CCCCCCC4)ccc3n2)CC1 [compound 0041] is lower in “D-Loop (% @10 μM)” value: 93.38% for the first, 62.62% for the second.

Compared with CCN1CCN(c2cc(C)c3cc(NC(=S)NCCCN4CCC4)ccc3n2)CC1 [compound 0042], CCN1CCN(c2cc(C)c3cc(NC(=S)NCCCN4CCNCC4)ccc3n2)CC1 [compound 0079] is lower in “D-Loop (% @10 μM)” value: 53.70% for the first, 25.15% for the second.

First: CCN1CCN(c2cc(C)c3cc(NC(=S)NCC(C)(CN)CN)ccc3n2)CC1 [compound 0044]
Second: CCN1CCN(c2cc(C)c3cc(NC(=S)NCCCCN)ccc3n2)CC1 [compound 0047]
The “D-Loop (% @10 μM)” value of the first is higher: 50.05% for the first, 7.92% for the second.

First: CCN1CCN(c2cc(C)c3cc(NC(=S)NCCN4CCNCC4)ccc3n2)CC1 [compound 0045]
Second: CCN1CCN(c2cc(C)c3cc(NC(=S)NCCN4CCN(C)CC4)ccc3n2)CC1 [compound 0046]
The “D-Loop (% @10 μM)” value of the first is higher: 55.68% for the first, 18.73% for the second.

Compared with CCN(CC)CCNC(=S)Nc1ccc2nc(N3CCNCC3)cc(C)c2c1 [compound 0048], CCN(CC)CCNC(=S)Nc1ccc2nc(N3CCCC3)cc(C)c2c1 [compound 0088] is lower in “D-Loop (% @10 μM)” value: 15.65% for the first, 8.25% for the second.

First: CCN(CC)CCNC(=S)Nc1ccc2nc(N3CCN(CC4CC4)CC3)cc(C)c2c1 [compound 0049]
Second: CCN(CC)CCNC(=S)Nc1ccc2nc(N3CCN(CC4CCCCC4)CC3)cc(C)c2c1 [compound 0050]
The “D-Loop (% @10 μM)” value of the first is lower: 44.4% for the first, 62.82% for the second.

Compared with CCN(CC)CCNC(=S)Nc1ccc2nc(N3CCN(CC4CCCNC4)CC3)cc(C)c2c1 (centres unmarked) [compound 0051], CCN(CC)CCNC(=S)Nc1ccc2nc(N3CCN(CC4CCNCC4)CC3)cc(C)c2c1 [compound 0052] is lower in “D-Loop (% @10 μM)” value: 10.13% for the first, 4.07% for the second.

Compared with CCC(C)[C@H](N)C(=O)N1CCN(c2cc(C)c3cc(NC(=S)NCCN(CC)CC)ccc3n2)CC1 (some centres unmarked) [compound 0053], CCN(CC)CCNC(=S)Nc1ccc2nc(N3CCN(CC(N)CO)CC3)cc(C)c2c1 (centres unmarked) [compound 0086] is lower in “D-Loop (% @10 μM)” value: 54.13% for the first, 4.44% for the second.

Going from CCN(CC)CCNC(=S)Nc1ccc2nc(N3CCN(C(=O)C4CCCN4)CC3)cc(C)c2c1 (centres unmarked) [compound 0054] to CCN(CC)CCNC(=S)Nc1ccc2nc(N3CCN(C(=O)C4CNCCN4)CC3)cc(C)c2c1 (centres unmarked) [compound 0055], the “D-Loop (% @10 μM)” value falls from 53.78% to 27.42%.

First: CCN1CCN(c2cc(C)c3cc(NC(=S)NCCCCCN)ccc3n2)CC1 [compound 0056]
Second: CCN1CCN(c2cc(C)c3cc(NC(=S)NCCCNC)ccc3n2)CC1 [compound 0057]
The “D-Loop (% @10 μM)” value of the first is lower: 0.31% for the first, 52.1% for the second.

First: CCN1CCN(c2cc(C)c3cc(NC(=S)N(C)CCCN)ccc3n2)CC1 [compound 0058]
Second: CCN(CC)CCNC(=S)Nc1ccc2nc(N3CCN(CCN)CC3)cc(C)c2c1 [compound 0080]
The “D-Loop (% @10 μM)” value of the first is lower: 25.89% for the first, 35.63% for the second.

Compared with Cc1cc(N2CCN(CC3CCCNC3)CC2)nc2ccc(NC(=S)NCCN3CCCCCC3)cc12 (centres unmarked) [compound 0059], Cc1cc(N2CCN(CC3CCCNC3)CC2)nc2ccc(NC(=S)NCCCN3CCCCCC3)cc12 (centres unmarked) [compound 0062] is higher in “D-Loop (% @10 μM)” value: 1.3% for the first, 1.89% for the second.

Compared with Cc1cc(N2CCN(CC3CCNCC3)CC2)nc2ccc(NC(=S)NCCN3CCCCCC3)cc12 [compound 0060], Cc1cc(N2CCN(CC3CCNCC3)CC2)nc2ccc(NC(=S)NCCCN3CCCCCC3)cc12 [compound 0063] is higher in “D-Loop (% @10 μM)” value: 0.66% for the first, 1.58% for the second.

Compared with Cc1cc(N2CCN(CC3CCCNC3)CC2)nc2ccc(NC(=S)NCCCN3CCCC3)cc12 (centres unmarked) [compound 0064], Cc1cc(N2CCN(CC3CCNCC3)CC2)nc2ccc(NC(=S)NCCCN3CCCC3)cc12 [compound 0065] is lower in “D-Loop (% @10 μM)” value: 1.5% for the first, 1.04% for the second.

First: CCN1CCN(c2cc(C)c3cc(NC(=S)NCCC4CCCN4)ccc3n2)CC1 (centres unmarked) [compound 0069]
Second: CCN1CCN(c2cc(C)c3cc(NC(=S)NCCN4CCC(CN5CCCC5)C4)ccc3n2)CC1 (centres unmarked) [compound 0073]
The “D-Loop (% @10 μM)” value of the first is higher: 20.7% for the first, 16.42% for the second.

First: CCN(CC)CCNC(=S)Nc1ccc2nc(N3CCN(Cc4nccn4C)CC3)cc(C)c2c1 [compound 0084]
Second: CCN(CC)CCNC(=O)C(=O)Nc1ccc2nc(N3CCN(CC)CC3)cc(C)c2c1 [compound 0114, N^1-(2-(diethylamino)ethyl)-N^2-(2-(4-ethylpiperazin-1-yl)-4-methylquinolin-6-yl)oxalamide]
The “D-Loop (% @10 μM)” value of the first is higher: 68.84% for the first, 16% for the second.

Going from CCN(CC)CCNC(=S)Nc1ccc2nc(N3CCN(CCC4CCC(N)CC4)CC3)cc(C)c2c1 (centres unmarked) [compound 0087] to CCN(CC)CCNC(=S)Nc1ccc2nc(N3CCCCC3)cc(C)c2c1 [compound 0098], the “D-Loop (% @10 μM)” value rises from 0% to 70.99%.

Going from Cc1cc(N2CCCC2)nc2ccc(NC(=S)NCCN3CCCCCC3)cc12 [compound 0089] to Cc1cc(N2CCCCC2)nc2ccc(NC(=S)NCCN3CCCCCC3)cc12 [compound 0099], the “D-Loop (% @10 μM)” value rises from 3.48% to 67.50%.

Going from Cc1cc(N2CCCC2)nc2ccc(NC(=S)NCCN3CCCCC3)cc12 [compound 0090] to Cc1cc(N2CCCC2)nc2ccc(NC(=S)NCCCN3CCCCC3)cc12 [compound 0091], the “D-Loop (% @10 μM)” value rises from 2.93% to 3.47%.

Going from Cc1cc(N2CCCC2)nc2ccc(NC(=S)NCCCN3CCCC3)cc12 [compound 0092] to Cc1cc(N2CCCC2)nc2ccc(NC(=S)NCCN3CCNCC3)cc12 [compound 0096], the “D-Loop (% @10 μM)” value falls from 5.98% to 3.99%.

Compared with Cc1cc(N2CCCC2)nc2ccc(NC(=S)NCCN)cc12 [compound 0093], Cc1cc(N2CCCC2)nc2ccc(NC(=S)NCCCN)cc12 [compound 0094] is lower in “D-Loop (% @10 μM)” value: 4.86% for the first, 4.26% for the second.

Going from Cc1cc(N2CCCC2)nc2ccc(NC(=S)NCCCCN)cc12 [compound 0095] to Cc1cc(N2CCCC2)nc2ccc(NC(=S)NCCN3CCN(C)CC3)cc12 [compound 0097], the “D-Loop (% @10 μM)” value rises from 4.51% to 4.72%.

Cc1cc(N2CCN(CC3CCNCC3)CC2)nc2ccc(NC(=O)NCCCN3CCCCCC3)cc12 [compound 0113, 1-(3-(azepan-1-yl)propyl)-3-(4-methyl-2-(4-(piperidin-4-ylmethyl)piperazin-1-yl)quinolin-6-yl)urea] was tested, and the “D-Loop (% @10 μM)” value was 0.34%.
